These results are taken from patent US11447502B2, “Antibacterial agents: dual-targeted RNA polymerase inhibitors” (priority 2018, dated 2022).

Assay in all cases: microbe, parasite or virus in culture
Holding throughout (type): cell-based

Experiment [1] has as its system rifampin-resistant M. tuberculosis 20626 (rpoB-H′526′D). The note with it: Mycobacterium tuberculosis; read-out: antibacterial activity rifampin-resistant M. tuberculosis 20626 (rpoB-H′526′D) MIC.
The subject of experiment [2] is rifampin-resistant M. tuberculosis 10545 (rpoB-S′531′L). Conditions: Mycobacterium tuberculosis; read-out: antibacterial activity rifampin-resistant M. tuberculosis 10545 (rpoB-S′531′L) MIC.
Experiment [3] deals with rifampin-resistant M. tuberculosis 4457 (rpoB-H′526′Y). Conditions: Mycobacterium tuberculosis; read-out: antibacterial activity rifampin-resistant M. tuberculosis 4457 (rpoB-H′526′Y) MIC.

Converted amounts (≈) assume the structure as drawn.

Turning to `CO[C@H]1/C=C/O[C@@]2(C)Oc3c(C)c(O)c4c(O)c(c(/C=N/N5CCN(CCN6CCN(c7ccc(F)cc7NC(=O)C(Cc7ccccc7)NC(=O)c7ccccc7F)CC6)CC5)c(O)c4c3C2=O)NC(=O)/C(C)=C\C=C\[C@H](C)[C@H](O)[C@@H](C)[C@@H](O)[C@@H](C)[C@H](OC(C)=O)[C@@H]1C` (some centres unmarked) [IX-403, Rifamycin SV—(CHN)—IX-402 Conjugate], the MIC was 25 µg/mL (≈ 19.2 µM) in experiment [1], 12.5 µg/mL (≈ 9.62 µM) in experiment [2] and 12.5 µg/mL (≈ 9.62 µM) in experiment [3].

With `[2H]C([2H])(c1ccccc1)C(NC(=O)c1ccccc1F)C(=O)Nc1cc(F)ccc1N1CCN(/N=C/C2=C3NC(=O)/C(C)=C\C=C\[C@H](C)[C@H](O)[C@@H](C)[C@@H](O)[C@@H](C)[C@H](OC(C)=O)[C@H](C)[C@@H](OC)/C=C/O[C@@]4(C)Oc5c(C)c(O)c(c(c5C4=O)C2=O)C3=O)CC1` (some centres unmarked) [IX-476a, Rifamycin S—(CHN)—IX-370a Conjugate], the MIC in experiment [2] worked out at 6.25 µg/mL (≈ 5.26 µM); in experiment [3], 3.13 µg/mL (≈ 2.64 µM).
